Several values for one entry are separate records, joined by “and”; a condition that tells them apart may be missing. Equal entries are not always repeated.
System: mouse odorant receptors (ORs)
Assay: CRE-luciferase assay of odorant receptor activation (Dual-Glo, Hana3A cells, RTP1S), dose-response EC50
Assay type: cell-based
Conditions: for log EC50 (Table 4 value), MOR203-1 / log EC50 of odorant at MOR203-1 (0 = no response) / log EC50, MOR203-1: receptor MOR203-1; for log EC50 of odorant at MOR5-1 (0 = no response): receptor MOR5-1; for log EC50 of odorant at MOR30-1 (0 = no response): receptor MOR30-1; for log EC50 of odorant at MOR33-1 (0 = no response): receptor MOR33-1; for log EC50 of odorant at MOR40-1 (0 = no response): receptor MOR40-1; for log EC50 of odorant at MOR260-1 (0 = no response): receptor MOR260-1; for log EC50, MOR138-1: receptor MOR138-1; for log EC50, MOR184-1: receptor MOR184-1; for log EC50, MOR189-1 / log EC50 (Table 4 value), MOR189-1: receptor MOR189-1; for log EC50 (Table 4 value), MOR222-1: receptor MOR222-1; for log EC50 (Table 4 value), MOR161-1: receptor MOR161-1; for log EC50 (Table 4 value), MOR162-1: receptor MOR162-1; for log EC50 (Table 4 value), MOR170-1: receptor MOR170-1; for log EC50 (Table 4 value), MOR185-1: receptor MOR185-1; for log EC50 (Table 4 value), MOR207-1: receptor MOR207-1; for log EC50 (Table 4 value), MOR273-1: receptor MOR273-1
[1] = receptor MOR41-1, 0 = no response
[2] = receptor MOR139-1, 0 = no response
[3] = receptor MOR271-1, 0 = no response
[4] = receptor MOR272-1, 0 = no response
[5] = receptor MOR261-1, 0 = no response

Structure (SMILES): CC(=O)OCc1ccccc1 [Benzyl acetate]
- log EC50 (Table 4 value), MOR41-1 (receptor MOR41-1): −3.972
- log EC50 (Table 4 value), MOR139-1 (receptor MOR139-1): −3.729
- log EC50 (Table 4 value), MOR203-1: −3.531
- log EC50 (Table 4 value), MOR223-1 (receptor MOR223-1): −3.841
- log EC50 (Table 4 value), MOR261-1 (receptor MOR261-1): −3.352
- log EC50 (Table 4 value), MOR271-1 (receptor MOR271-1): −5.379
- log EC50 (Table 4 value), MOR272-1 (receptor MOR272-1): −4.948

Structure (SMILES): CCCCCCCC(=O)O [Octanoic Acid]
- log EC50 of odorant at MOR5-1 (0 = no response): −3.711
- log EC50 of odorant at MOR23-1 (0 = no response) (receptor MOR23-1): −5.053
- log EC50 of odorant at MOR25-1 (0 = no response) (receptor MOR25-1): −3.689
- log EC50 of odorant at MOR30-1 (0 = no response): −3.68
- log EC50 of odorant at MOR33-1 (0 = no response): −4.212
- log EC50 of odorant at MOR40-1 (0 = no response): −3.617

Structure (SMILES): CCCCCCCCC(=O)O [Nonanoic acid]
- log EC50 of odorant at MOR5-1 (0 = no response): −4.029
- log EC50 of odorant at MOR18-1 (0 = no response) (receptor MOR18-1): −4.077
- log EC50 of odorant at MOR30-1 (0 = no response): −4.396
- log EC50 of odorant at MOR33-1 (0 = no response): −4.606
- log EC50 of odorant at MOR37-1 (0 = no response) (receptor MOR37-1): −3.9
- log EC50 of odorant at MOR40-1 (0 = no response): −4.128
- log EC50 of odorant at MOR203-1 (0 = no response): −3.478
- log EC50 of odorant at MOR260-1 (0 = no response): −4.108

Structure (SMILES): C=C(C)[C@@H]1CC[C@@H](C)C(=O)C1 [(+)-Dihydrocarvone]
- log EC50, MOR41-1 [1]: −4.301
- log EC50, MOR138-1 (0 = no response): −3.498
- log EC50, MOR139-1 [2]: −3.637
- log EC50, MOR182-1 (receptor MOR182-1, 0 = no response): −3.406
- log EC50, MOR184-1 (0 = no response): −3.55
- log EC50, MOR189-1 (0 = no response): −3.976
- log EC50, MOR203-1 (0 = no response): −4.241
- log EC50, MOR271-1 [3]: −3.987
- log EC50, MOR272-1 [4]: −4.273

Structure (SMILES): C=CCOC(=O)Cc1ccccc1 [Allyl phenylacetate]
- log EC50 (Table 4 value), MOR1-1 (receptor MOR1-1): −3.581
- log EC50 (Table 4 value), MOR2-1 (receptor MOR2-1): −3.253
- log EC50 (Table 4 value), MOR139-1 (receptor MOR139-1): −3.625
- log EC50 (Table 4 value), MOR203-1: −3.401
- log EC50 (Table 4 value), MOR222-1: −3.369
- log EC50 (Table 4 value), MOR223-1 (receptor MOR223-1): −4.178
- log EC50 (Table 4 value), MOR236-1 (receptor MOR236-1): −4.052
- log EC50 (Table 4 value), MOR258-17 (receptor MOR258-17): −3.842
- log EC50 (Table 4 value), MOR261-1 (receptor MOR261-1): −3.425
- log EC50 (Table 4 value), MOR268-1 (receptor MOR268-1): −3.434
- log EC50 (Table 4 value), MOR271-1 (receptor MOR271-1): −4.23
- log EC50 (Table 4 value), MOR272-1 (receptor MOR272-1): −4.824

Structure (SMILES): CCCCCCCCCS [Nonanethiol]
- log EC50 of odorant at MOR203-1 (0 = no response): −3.528
- log EC50 of odorant at MOR260-1 (0 = no response): −4.488
- log EC50 of odorant at MOR261-1 (0 = no response) (receptor MOR261-1): −3.376
- log EC50 of odorant at MOR268-1 (0 = no response) (receptor MOR268-1): −3.589

Structure (SMILES): CCCCCCCCCCO [1-Decanol]
- log EC50, MOR203-1 (0 = no response): −3.299
- log EC50, MOR261-1 [5]: −3.273

Structure (SMILES): CC(C)=CCCC(C)CCO (single isomer, unassigned; (-)) [(−)-b-C ? inedol]
- log EC50, MOR138-1 (0 = no response): −3.347
- log EC50, MOR203-1 (0 = no response): −3.147

Structure (SMILES): C=C(C)C1CC=C(C)C(=O)C1 (single isomer, unassigned; (-)) [(−)-Carvone]
- log EC50, MOR41-1 [1]: −4.257
- log EC50, MOR139-1 [2]: −3.861
- log EC50, MOR184-1 (0 = no response): −3.92
- log EC50, MOR189-1 (0 = no response): −4.147
- log EC50, MOR203-1 (0 = no response): −3.938
- log EC50, MOR271-1 [3]: −4.14

Structure (SMILES): O=c1ccc2ccccc2o1 [Coumarin]
- log EC50 (Table 4 value), MOR41-1 (receptor MOR41-1): −4.785
- log EC50 (Table 4 value), MOR106-1 (receptor MOR106-1): −3.919
- log EC50 (Table 4 value), MOR129-1 (receptor MOR129-1): −4.04
- log EC50 (Table 4 value), MOR139-1 (receptor MOR139-1): −3.749
- log EC50 (Table 4 value), MOR161-1: −3.139
- log EC50 (Table 4 value), MOR162-1: −4.483
- log EC50 (Table 4 value), MOR170-1: −3.989
- log EC50 (Table 4 value), MOR185-1: −4.042
- log EC50 (Table 4 value), MOR189-1: −3.215
- log EC50 (Table 4 value), MOR207-1: −3.905
- log EC50 (Table 4 value), MOR250-1 (receptor MOR250-1): −3.855
- log EC50 (Table 4 value), MOR258-1 (receptor MOR258-1): −4.296
- log EC50 (Table 4 value), MOR259-1 (receptor MOR259-1): −3.834

Structure (SMILES): CCCCCCCCS [Octanethiol]
- log EC50 of odorant at MOR203-1 (0 = no response): −3.356

Structure (SMILES): CC(=O)c1ccccc1 [Acetophenone]
- log EC50 (Table 4 value), MOR41-1 (receptor MOR41-1): −5.039
- log EC50 (Table 4 value), MOR105-1 (receptor MOR105-1): −3.429
- log EC50 (Table 4 value), MOR106-1 (receptor MOR106-1): −3.854
- log EC50 (Table 4 value), MOR129-1 (receptor MOR129-1): −5.484
- log EC50 (Table 4 value), MOR139-1 (receptor MOR139-1): −3.935
- log EC50 (Table 4 value), MOR161-1: −3.825
- log EC50 (Table 4 value), MOR162-1: −4.778
- log EC50 (Table 4 value), MOR170-1: −3.9
- log EC50 (Table 4 value), MOR185-1: −4.016
- log EC50 (Table 4 value), MOR189-1: −3.372
- log EC50 (Table 4 value), MOR207-1: −3.608
- log EC50 (Table 4 value), MOR250-1 (receptor MOR250-1): −3.975
- log EC50 (Table 4 value), MOR258-1 (receptor MOR258-1): −3.358
- log EC50 (Table 4 value), MOR271-1 (receptor MOR271-1): −4.05
- log EC50 (Table 4 value), MOR272-1 (receptor MOR272-1): −3.922

Structure (SMILES): CC(C)=CCC/C(C)=C/CO [Getaniol]
- log EC50 (Table 4 value), MOR139-1 (receptor MOR139-1): −3.939
- log EC50 (Table 4 value), MOR203-1: −3.622
- log EC50 (Table 4 value), MOR238-1 (receptor MOR238-1): −3.843
- log EC50 (Table 4 value), MOR268-1 (receptor MOR268-1): −3.897

Structure (SMILES): CC(=O)Oc1ccccc1 [Phenyl acetate]
- log EC50 of odorant at MOR41-1 (0 = no response) (receptor MOR41-1): −4.143
- log EC50 of odorant at MOR106-1 (0 = no response) (receptor MOR106-1): −3.874
- log EC50 of odorant at MOR139-1 (0 = no response) (receptor MOR139-1): −3.421 and −3.385
- log EC50 of odorant at MOR223-1 (0 = no response) (receptor MOR223-1): −3.487
- log EC50 of odorant at MOR250-1 (0 = no response) (receptor MOR250-1): −3.545
- log EC50 of odorant at MOR258-1 (0 = no response) (receptor MOR258-1): −3.099
- log EC50 of odorant at MOR271-1 (0 = no response) (receptor MOR271-1): −5.033
- log EC50 of odorant at MOR272-1 (0 = no response) (receptor MOR272-1): −5.098

Structure (SMILES): O=C1CCOc2ccccc21 [4-Chromanone]
- log EC50 (Table 4 value), MOR41-1 (receptor MOR41-1): −4.747
- log EC50 (Table 4 value), MOR129-1 (receptor MOR129-1): −3.785
- log EC50 (Table 4 value), MOR139-1 (receptor MOR139-1): −4.028
- log EC50 (Table 4 value), MOR162-1: −4.225
- log EC50 (Table 4 value), MOR170-1: −4.209
- log EC50 (Table 4 value), MOR185-1: −3.833
- log EC50 (Table 4 value), MOR189-1: −3.684
- log EC50 (Table 4 value), MOR207-1: −3.724
- log EC50 (Table 4 value), MOR222-1: −3.618
- log EC50 (Table 4 value), MOR271-1 (receptor MOR271-1): −4.047
- log EC50 (Table 4 value), MOR272-1 (receptor MOR272-1): −4.043
- log EC50 (Table 4 value), MOR273-1: −4.201
- log EC50 (Table 4 value), MOR277-1 (receptor MOR277-1): −3.415

Structure (SMILES): CCCCCCCO [1-Heptanol]
- log EC50, MOR41-1 [1]: −3.68
- log EC50, MOR203-1 (0 = no response): −3.387
- log EC50, MOR261-1 [5]: −3.382
- log EC50, MOR271-1 [3]: −3.47
- log EC50, MOR272-1 [4]: −4.181

Structure (SMILES): C=C(C)[C@H]1CC=C(C)C(=O)C1 [(+)-Carvone]
- log EC50, MOR41-1 [1]: −4.644
- log EC50, MOR129-1 (receptor MOR129-1, 0 = no response): −4.145
- log EC50, MOR139-1 [2]: −4.032
- log EC50, MOR184-1 (0 = no response): −3.812
- log EC50, MOR189-1 (0 = no response): −4.302
- log EC50, MOR203-1 (0 = no response): −3.814
- log EC50, MOR250-1 (receptor MOR250-1, 0 = no response): −3.938
- log EC50, MOR271-1 [3]: −4.098
- log EC50, MOR272-1 [4]: −4.564

Structure (SMILES): CCCCCC1=C(C)CCC1=O [Dihydroiasmone]
- log EC50 (Table 4 value), MOR41-1 (receptor MOR41-1): −3.766
- log EC50 (Table 4 value), MOR139-1 (receptor MOR139-1): −4.308
- log EC50 (Table 4 value), MOR189-1: −3.945
- log EC50 (Table 4 value), MOR205-1 (receptor MOR205-1): −4.699
- log EC50 (Table 4 value), MOR271-1 (receptor MOR271-1): −4.126
- log EC50 (Table 4 value), MOR272-1 (receptor MOR272-1): −4.447
- log EC50 (Table 4 value), MOR273-1: −4.441

Reference: patent US20100248390A1, “COMPOSITIONS AND METHODS FOR IDENTIFYING LIGANDS OF ODORANT RECEPTORS” (DUKE UNIVERSITY, priority 2009, published 2010)
